Results on 4 compounds are retold here after patent publication US20030162662A1, “2-Phenyl-2h-pyridazine-3-ones” (priority 2000, published 2003).

One data set deals with BIDPI (common blackjack). Briefly: Greenhouse herbicidal action, postemergence treatment, BIDPI. In kind it is in vivo. The source says: (§1) The herbicidal action of the 2-phenylpyridazin-3-one compounds of the formula I could be shown by means of greenhouse experiments: […]
(§2) The cultivation containers used were plastic pots containing loamy sand with approximately 3.0% of humus as a substrate. The seeds of the test plants were sown separately according to species.
(§3) For the purpose of postemergence treatment, the test plants were first raised up to a growth height of 3 to 15 cm, depending on growth form, and then treated with the active compounds suspended or emulsified in water. For this, the test plants were either sown directly and raised in the same containers or they were first raised separately as seedlings and transplanted into the experimental containers a few days before the treatment. The application rate for the postemergence treatment was 31.2 or 15.6 g of a.S./ha.
(§4) The plants were kept species-specifically at temperatures from 10-25° C. or 20-35° C. The experimental period extended over 2 to 4 weeks. During this time, the plants were tended, and their reaction to the individual treatments was assessed.
(§5) Assessment was carried out on a scale from 0 to 100. 100 here means no emergence of the plants or complete destruction of at least the above-ground parts and 0 means no damage or normal course of growth.
(§6) The plants used in the greenhouse experiments were made up of the following species: […]

The test system of the next data set is SETFA (Faber's foxtail). Briefly: Greenhouse herbicidal action, postemergence treatment, SETFA. Format: in vivo.
Source text: as §1, §2, §3, §4, §5, §6

For `CCOC(=O)C=Cc1cc(-n2ncc(C(F)(F)F)c(C)c2=O)c(F)cc1Cl` [Example I-658 of WO 97/07104, reference compound], the “herbicidal action against BIDPI (scale 0 to 100; 100 = complete destruction, 0 = no damage)” value in the data set with BIDPI (common blackjack) (application rate 15.6 g/ha) and in the data set on BIDPI (common blackjack) (application rate 31.2 g/ha) was 30% in each case. Also, the “herbicidal action against SETFA (scale 0 to 100; 100 = complete destruction, 0 = no damage)” value in the data set on SETFA (Faber's foxtail) (application rate 15.6 g/ha) is recorded as 80%.
For `CCOC(=O)C(Cl)=Cc1cc(-n2ncc(C(F)(F)F)c(C)c2=O)c(F)cc1Cl` [Ia.3, 2-[4-Chloro-2-fluoro-5-(2-ethoxycarbonyl-2-chloroethen-1-yl)-phenyl]-4-methyl-5-trifluoromethyl-2H-pyridazin-3-one], the “herbicidal action against BIDPI (scale 0 to 100; 100 = complete destruction, 0 = no damage)” value in the data set on BIDPI (common blackjack) (application rate 15.6 g/ha) was 80%; in the data set on BIDPI (common blackjack) (application rate 31.2 g/ha), 100%. The “herbicidal action against SETFA (scale 0 to 100; 100 = complete destruction, 0 = no damage)” value in the data set with SETFA (Faber's foxtail) (application rate 15.6 g/ha) and in the data set with SETFA (Faber's foxtail) (application rate 31.2 g/ha) was 100% in each case.
For `COC(=O)/C(Cl)=C/c1cc(-n2ncc(C(F)(F)F)c(C)c2=O)c(F)cc1Cl` [Ib.2], the melting point (as a rule, the temperature, or range, at which the solid turns liquid) fell in the range of 121 to 123 °C.
Consider `Cc1c(C(F)(F)F)cnn(-c2cc(/C=C(\Cl)C(N)=O)c(Cl)cc2F)c1=O` [Ib.30], for which the melting point lay in the range of 128 to 129 °C.
